Reference: ChEMBL document CHEMBL3301448, “MMV Malaria Box screening against Toxoplasma gondii and Entamoeba histolytica”

What was measured:
Toxoplasma gondii = assay: MMV: A total of 100ul of inoculum was added to each well (parasite/cell ratio, ~10:1; final volume, 200 ul). Six hours after inoculation, nonadherent parasites were removed, and 100 ul of complete DMEM (1% penicillin-streptomycin, 3% FBS) supplemented with inhibitors at different concentrations (2-fold serial dilutions starting from 30 uM) was added to all except the negative-control wells. Positive controls, consisting of pyrimethamine (PYR) and sulfadiazine (SDZ) (20-mg/ml stocks in DMSO), were tested at a 2mg/ml final concentration. Each test was performed in triplicate.; type: functional, organism-based; settings: 6 h
Entamoeba histolytica = assay: MMV: Primary screening was performed with each compound at a 30 uM final concentration and in triplicate in sealed 96-well polystyrene microtiter plates. Parasite inocula (100 ul) comprising 20000 parasites/ml were added to each well and grown at 37 degrees C in a humidified atmosphere of 5% CO2 for 72 h. Positive controls consisted of metronidazole at 1 mg/ml. The growth of E. histolytica trophozoites in each well was determined microscopically by measuring the diameters of the confluent cells in drug-containing wells relative to those in the nega- tive-control wells.; type: functional, organism-based

| SMILES | IC50 (Toxoplasma gondii) [µM] | IC50 (Entamoeba histolytica) [µM] |
| --- | --- | --- |
| COc1ccc(Nc2nc(N/N=C/c3ccc(O)cc3)nc(Nc3ccc([N+](=O)[O-])cc3)n2)cc1 | > 30 | > 30 |
| O=C(NNc1cc(N2CCCC2)nc(N2CCCC2)n1)c1ccccc1 | > 30 | > 30 |
| COC(=O)c1ccc(Cl)c2c1C1C=CCC1C(c1cccc3ccccc13)N2 (stereo not drawn) | > 30 | > 30 |
| O=C(CCc1ccccc1)c1ccccc1OCC(O)CN1CCCCC1 (stereo not drawn) | > 30 | > 30 |
| Cn1c(C(=O)c2cccc3ccccc23)nc2ccccc21 | > 30 | > 30 |
| OCCNc1nc(Nc2ccc(Cl)c(Cl)c2)nc2ccccc12 | > 30 | > 30 |
| Nc1ccc(-c2nc3cc(Oc4ccc(Oc5ccc6[nH]c(-c7ccc(N)cc7)nc6c5)cc4)ccc3[nH]2)cc1 | > 30 | > 30 |
| Cc1cc(N(C)C)nc(Nc2ccc(NC(=O)Nc3ccccc3)cc2)n1 | > 30 | > 30 |
| Cc1ccc(Nc2nc(N)c3ccccc3n2)cc1Cl | > 30 | > 30 |
| CCc1ccc(CNCC(O)c2ccccc2)cc1 (stereo not drawn) | > 30 | > 30 |
| CCCn1c(=N)c(C(=O)NC2CCCCC2)cc2c(=O)n3cccc(C)c3nc21 | > 30 | > 30 |
| Nc1ccn([C@@H]2O[C@H](CO)[C@@H](O)[C@H]2O)c(=O)n1 [CYTIDINE] | > 30 | > 30 |
| O=C(Nc1cccc(C2=NCCN2)c1)Nc1cccc(C2=NCCN2)c1 [IMIDOCARB] | > 30 | > 30 |
| CN(C)c1ccc(C(O)(c2ccc(N(C)C)cc2)c2ccc(N(C)C)cc2)cc1 [METHYLROSANILINE] | > 30 | > 30 |
